Assay results published in ChEMBL document CHEMBL3580624 (J Nat Prod, 2015).
Active and inactive are the calls of the source. The rule behind the calls is not given here.

Key:
[1] = molecular target: T1, Prolyl endopeptidase (Homo sapiens, UniProt P48147); test: Inhibition of human recombinant POP pre-incubated for 15 mins before Z-Gly-Pro-AMC substrate addition and further incubated for 1 hr by fluorimetry
T1 sequence (P48147 whole entry): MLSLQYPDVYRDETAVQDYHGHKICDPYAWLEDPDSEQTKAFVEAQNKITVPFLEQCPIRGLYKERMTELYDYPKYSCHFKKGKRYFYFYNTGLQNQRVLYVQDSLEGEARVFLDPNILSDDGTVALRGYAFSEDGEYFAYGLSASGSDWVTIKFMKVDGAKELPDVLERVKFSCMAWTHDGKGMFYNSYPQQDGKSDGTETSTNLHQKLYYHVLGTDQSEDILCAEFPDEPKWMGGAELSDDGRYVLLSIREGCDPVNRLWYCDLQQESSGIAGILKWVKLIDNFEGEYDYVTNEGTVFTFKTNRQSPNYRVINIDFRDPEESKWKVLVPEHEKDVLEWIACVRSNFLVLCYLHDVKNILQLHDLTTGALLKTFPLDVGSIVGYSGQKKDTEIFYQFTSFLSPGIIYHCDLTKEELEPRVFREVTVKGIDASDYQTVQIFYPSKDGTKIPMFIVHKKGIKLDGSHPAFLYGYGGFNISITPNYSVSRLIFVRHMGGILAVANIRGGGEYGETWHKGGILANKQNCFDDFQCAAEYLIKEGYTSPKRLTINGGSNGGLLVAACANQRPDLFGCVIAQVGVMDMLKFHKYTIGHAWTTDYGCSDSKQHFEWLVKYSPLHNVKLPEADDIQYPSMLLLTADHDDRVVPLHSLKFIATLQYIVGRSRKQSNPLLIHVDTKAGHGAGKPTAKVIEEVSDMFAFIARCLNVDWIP

[2] = species on record: Bos taurus; test: Inhibition of bovine trypsin at 25 uM pre-incubated for 15 mins before Bz-Arg-AMC-HCl substrate addition and further incubated for 1 hr by fluorimetry
[3] = molecular target: Chymotrypsinogen A (Bos taurus) (UniProt P00766); test: Inhibition of bovine alpha-chymotrypsin at 75 uM pre-incubated for 15 mins before Ala-Ala-Phe-AMC substrate addition and further incubated for 1 hr by fluorimetry

| Structure (SMILES) | IC50 [1] [µM] | inhibition [2] | inhibition [3] |
| --- | --- | --- | --- |
| CC[C@H](C)[C@@H]1NC(=O)[C@@H]2CCCN2C(=O)[C@H](CC(C)C)NC(=O)CNC(=O)[C@H](CC(N)=O)NC(=O)[C@H](CCCNC(=N)N)NC(=O)[C@H]([C@@H](C)O)NC(=O)[C@@H]2CSSC[C@@H]3NC(=O)[C@H]([C@@H](C)O)NC(=O)CNC(=O)CNC(=O)[C@H](C(C)C)NC(=O)[C@@H]4CSSC[C@H](NC(=O)[C@H]([C@@H](C)O)NC(=O)[C@H](CSSC[C@H](NC1=O)C(=O)NCC(=O)N[C@@H](CCC(=O)O)C(=O)N[C@@H](CO)C(=O)N4)NC(=O)CNC(=O)[C@@H]1CCCN1C(=O)[C@H]([C@@H](C)O)NC(=O)[C@H](CC(N)=O)NC3=O)C(=O)N[C@@H]([C@@H](C)O)C(=O)N[C@@H](Cc1c[nH]c3ccccc13)C(=O)N1CCC[C@H]1C(=O)N[C@@H](C(C)C)C(=O)N2 (stereo in doubt; form 2) [listing 1 of 2 here] | 8.6 |  |  |
| CC[C@H](C)[C@@H]1NC(=O)[C@@H]2CCCN2C(=O)[C@H](CC(C)C)NC(=O)CNC(=O)[C@H](CC(N)=O)NC(=O)[C@H](CCCNC(=N)N)NC(=O)[C@H]([C@@H](C)O)NC(=O)[C@@H]2CSSC[C@@H]3NC(=O)[C@H]([C@@H](C)O)NC(=O)CNC(=O)CNC(=O)[C@H](C(C)C)NC(=O)[C@@H]4CSSC[C@H](NC(=O)[C@H]([C@@H](C)O)NC(=O)[C@H](CSSC[C@H](NC1=O)C(=O)NCC(=O)N[C@@H](CCC(=O)O)C(=O)N[C@@H](CO)C(=O)N4)NC(=O)CNC(=O)[C@@H]1CCCN1C(=O)[C@H]([C@@H](C)O)NC(=O)[C@H](CC(N)=O)NC3=O)C(=O)N[C@@H]([C@@H](C)O)C(=O)N[C@@H](Cc1c[nH]c3ccccc13)C(=O)N1CCC[C@H]1C(=O)N[C@@H](C(C)C)C(=O)N2 (stereo in doubt; form 1) | 9.57 |  |  |
| CC[C@H](C)[C@@H]1NC(=O)[C@@H]2CCCN2C(=O)[C@H](CC(C)C)NC(=O)CNC(=O)[C@H](CC(N)=O)NC(=O)[C@H](CCCNC(=N)N)NC(=O)[C@H]([C@@H](C)O)NC(=O)[C@@H]2CSSC[C@@H]3NC(=O)[C@H]([C@@H](C)O)NC(=O)CNC(=O)CNC(=O)[C@H](C(C)C)NC(=O)[C@@H]4CSSC[C@H](NC(=O)[C@H]([C@@H](C)O)NC(=O)[C@H](CSSC[C@H](NC1=O)C(=O)NCC(=O)N[C@@H](CCC(=O)O)C(=O)N[C@@H](CO)C(=O)N4)NC(=O)CNC(=O)[C@@H]1CCCN1C(=O)[C@H]([C@@H](C)O)NC(=O)[C@H](CC(N)=O)NC3=O)C(=O)N[C@@H]([C@@H](C)O)C(=O)N[C@@H](Cc1c[nH]c3ccccc13)C(=O)N1CCC[C@H]1C(=O)N[C@@H](C(C)C)C(=O)N2 (stereo in doubt; form 2) [listing 2 of 2 here] |  | inactive | inactive |
